Results from US12083124B2 (Incyte Corporation, priority 2019, dated 2024).
Where two headings read alike, the source gives them in different places.

How the values were obtained:
[1] = target: wild-type un-phosphorylated FGFR3 (Homo sapiens, UniProt P22607); experiment: FGFR Enzymatic Assay (FRET peptide phosphorylation), FGFR3
Protocol: (§1) The inhibitor potency of the exemplified compounds was determined in an enzyme discontinuous assay that measures peptide phosphorylation using FRET measurements to detect product formation. Inhibitors were serially diluted in DMSO and a volume of 0.2 μL was transferred to the wells of a 384-well plate. […] Appropriate controls (enzyme blank and enzyme with no inhibitor) were included on the plate. […] The 10 μL/well reaction concentration of the peptide substrate was 500 nM whereas the ATP concentration was maintained near or below the ATP Km. The ATP Km values were pre-determined in a separate series of experiments. The reaction plate was incubated at 25° C. for 1 hr and the reactions were ended with the addition of 5 μL/well of quench solution (50 mM Tris, 150 mM NaCl, 0.5 mg/mL BSA, pH 7.8; 45 mM EDTA, 600 nM staurosporin, with Perkin Elmer Lance Reagents at 3.75 nM Eu-antibody PY20 and 180 nM APC-Streptavidin). The plate was allowed to equilibrate for ˜10 minutes at ambient temperature before scanning on a PheraStar plate reader (BMG Labtech) instrument.
(§2) Either GraphPad prism or XLfit was used to analyze the data. The IC50 values were derived by fitting the data to a four parameter logistic equation producing a sigmoidal dose-response curve with a variable Hill coefficient. Prism equation: Y=Bottom+(Top-Bottom)/(1+10^((Log IC50-X)*Hill slope)); XLfit equation: Y=(A+((B−A)/(1+((X/C)^D)))) where X is the logarithm of inhibitor concentration and Y is the response.
(§3) GraphPad prism3 was used to analyze the data. The IC50 values were derived by fitting the data to the equation for a sigmoidal dose-response with a variable slope. Y=Bottom+(Top-Bottom)/(1+10^((Log IC50-X)*Hill Slope)) where X is the logarithm of concentration and Y is the response.

[2] = target: wild-type un-phosphorylated FGFR1 (Homo sapiens, UniProt P11362); experiment: FGFR Enzymatic Assay (FRET peptide phosphorylation), FGFR1; settings: pre-incubated for 4 hours
Protocol: as §1, §2, §3
The data in Table 1 was measured in wild-type un-phosphorylated FGFR1, FGFR2, FGFR3, and FGFR4 proteins.

[3] = FGFR1, wild-type un-phosphorylated FGFR1

Sequence of wild-type un-phosphorylated FGFR3 (P22607 23-806): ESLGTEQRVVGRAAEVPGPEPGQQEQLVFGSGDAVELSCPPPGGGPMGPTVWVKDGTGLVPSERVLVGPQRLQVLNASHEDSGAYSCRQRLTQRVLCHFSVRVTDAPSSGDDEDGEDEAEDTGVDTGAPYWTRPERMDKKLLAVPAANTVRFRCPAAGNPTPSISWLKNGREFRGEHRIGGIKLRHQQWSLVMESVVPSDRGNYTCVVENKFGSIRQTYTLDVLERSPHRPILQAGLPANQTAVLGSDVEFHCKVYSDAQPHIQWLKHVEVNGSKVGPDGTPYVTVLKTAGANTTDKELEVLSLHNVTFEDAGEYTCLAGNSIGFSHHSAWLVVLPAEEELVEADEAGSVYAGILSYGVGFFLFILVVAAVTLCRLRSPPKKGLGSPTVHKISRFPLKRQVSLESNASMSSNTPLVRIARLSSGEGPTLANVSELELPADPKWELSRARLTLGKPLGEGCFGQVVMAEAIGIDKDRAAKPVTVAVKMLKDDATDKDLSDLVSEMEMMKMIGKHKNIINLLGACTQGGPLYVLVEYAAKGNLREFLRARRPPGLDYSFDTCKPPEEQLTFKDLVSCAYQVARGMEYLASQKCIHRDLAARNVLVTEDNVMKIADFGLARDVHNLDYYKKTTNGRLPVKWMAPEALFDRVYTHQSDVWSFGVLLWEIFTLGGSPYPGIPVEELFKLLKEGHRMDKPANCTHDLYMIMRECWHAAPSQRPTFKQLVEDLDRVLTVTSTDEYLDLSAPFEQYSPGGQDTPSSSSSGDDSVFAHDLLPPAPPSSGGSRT
Sequence of wild-type un-phosphorylated FGFR1 (P11362 22-822): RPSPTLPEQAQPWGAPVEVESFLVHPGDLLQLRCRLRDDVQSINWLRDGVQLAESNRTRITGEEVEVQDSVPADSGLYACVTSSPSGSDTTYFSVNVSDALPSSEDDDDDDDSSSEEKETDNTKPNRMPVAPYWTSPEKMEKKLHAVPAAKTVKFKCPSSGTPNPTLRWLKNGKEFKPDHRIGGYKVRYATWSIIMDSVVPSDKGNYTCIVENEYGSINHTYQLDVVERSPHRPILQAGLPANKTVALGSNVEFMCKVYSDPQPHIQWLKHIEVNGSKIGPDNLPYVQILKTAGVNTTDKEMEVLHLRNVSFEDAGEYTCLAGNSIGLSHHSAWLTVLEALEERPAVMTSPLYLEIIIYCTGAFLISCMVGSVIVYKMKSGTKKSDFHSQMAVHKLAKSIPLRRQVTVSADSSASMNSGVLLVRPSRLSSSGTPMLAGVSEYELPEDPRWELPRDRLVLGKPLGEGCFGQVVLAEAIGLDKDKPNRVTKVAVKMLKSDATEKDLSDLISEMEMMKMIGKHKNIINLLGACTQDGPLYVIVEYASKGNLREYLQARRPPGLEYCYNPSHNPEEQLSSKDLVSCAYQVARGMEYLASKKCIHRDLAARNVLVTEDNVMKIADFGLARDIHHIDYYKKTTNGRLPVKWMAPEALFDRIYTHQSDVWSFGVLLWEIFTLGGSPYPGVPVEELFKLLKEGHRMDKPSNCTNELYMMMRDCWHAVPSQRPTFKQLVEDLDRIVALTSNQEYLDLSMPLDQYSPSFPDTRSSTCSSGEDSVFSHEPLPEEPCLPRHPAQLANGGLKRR

Row | SMILES | IC50 [1] [nM] | IC50 [2, 3] [nM] | IC50 ([2]; read-out: FGFR1, wild-type un-phosphorylated FGFR1) [nM] | IC50 ([1]; read-out: FGFR3, wild-type un-phosphorylated FGFR3, pre-incubated for 4 hours) [nM]
1 | CNc1cc2[nH]nc(-c3cnn(C)c3)c2nc1-c1cccc2c1CCC2 [Example 37, 5-(2,3-Dihydro-1H-inden-4-yl)-N-methyl-3-(1-methyl-1H-pyrazol-4-yl)-1H-pyrazolo[4,3-b]pyridin-6-amine] | < 6 | > 100 |  | 
2 | CCN1CCC(n2cc(-c3n[nH]c4cc(OC)c(-c5cccc6c5CCC6)nc34)cn2)C1 (stereo not drawn) [Example 15, 5-(2,3-Dihydro-1H-inden-4-yl)-3-(1-(1-ethylpyrrolidin-3-yl)-1H-pyrazol-4-yl)-6-methoxy-1H-pyrazolo[4,3-b]pyridine] | < 6 | 40 to 100 |  | 
3 | COc1cc2[nH]nc(-c3cnn(C4CCNC4)c3)c2nc1-c1cccc2c1CCC2 (stereo not drawn) [Example 14, 5-(2,3-Dihydro-1H-inden-4-yl)-6-methoxy-3-(1-(pyrrolidin-3-yl)-1H-pyrazol-4-yl)-1H-pyrazolo[4,3-b]pyridine] | < 6 | 40 to 100 |  | 
4 | CCOc1cc2[nH]nc(-c3cnn(C)c3)c2nc1-c1cccc2c1CCC2 [Example 26, 5-(2,3-Dihydro-1H-inden-4-yl)-6-ethoxy-3-(1-methyl-1H-pyrazol-4-yl)-1H-pyrazolo[4,3-b]pyridine] | < 6 | > 100 |  | 
5 | COc1cc2[nH]nc(-c3cnn(C4CCN(C(C)=O)CC4)c3)c2nc1-c1cccc(C)c1C [Example 69, 1-(4-(4-(5-(2,3-Dimethylphenyl)-6-methoxy-1H-pyrazolo[4,3-b]pyridin-3-yl)-1H-pyrazol-1-yl)piperidin-1-yl)ethan-1-one] | < 6 | > 100 |  | 
6 | COC(=O)N1CC(n2cc(-c3n[nH]c4cc(OC)c(-c5cccc(C)c5C)nc34)cn2)C1 [Example 71, Methyl 3-(4-(5-(2,3-dimethylphenyl)-6-methoxy-1H-pyrazolo[4,3-b]pyridin-3-yl)-1H-pyrazol-1-yl)azetidine-1-carboxylate] | < 6 | > 100 |  | 
7 | COc1cc2[nH]nc(-c3ccc(N4CCN(C(C)=O)CC4)nc3)c2nc1-c1cccc(CC#N)c1C [Example 55, 2-(3-(3-(6-(4-Acetylpiperazin-1-yl)pyridin-3-yl)-6-methoxy-1H-pyrazolo[4,3-b]pyridin-5-yl)-2-methylphenyl)acetonitrile] | < 6 | > 100 |  | 
8 | COc1cc2[nH]nc(-c3cnn([C@H]4CC[C@@H](NC(C)=O)CC4)c3)c2nc1-c1cccc2c1CCC2 [Example 53, N-((cis)-4-(4-(5-(2,3-Dihydro-1H-inden-4-yl)-6-methoxy-1H-pyrazolo[4,3-b]pyridin-3-yl)-1H-pyrazol-1-yl)cyclohexyl)acetamide] | < 6 | 40 to 100 |  | 
9 | COc1cc2[nH]nc(-c3ccc(N4CCN(C(C)=O)CC4)nc3)c2nc1-c1cccc2c1CCC2 [Example 64, 1-(4-(5-(5-(2,3-Dihydro-1H-inden-4-yl)-6-methoxy-1H-pyrazolo[4,3-b]pyridin-3-yl)pyridin-2-yl)piperazin-1-yl)ethan-1-one] | < 6 |  | 6 to 40 | 
10 | COc1cc2[nH]nc(-c3cnn(C)c3)c2nc1-c1cccc2c1CCC2O (single isomer, unassigned) [Example 8, 4-(6-Methoxy-3-(1-methyl-1H-pyrazol-4-yl)-1H-pyrazolo[4,3-b]pyridin-5-yl)-2,3-dihydro-1H-inden-1-ol] |  | > 100 |  | < 6
11 | COc1cc2[nH]nc(-c3ccc(N4CCN(C)CC4C)nc3)c2nc1-c1cccc2c1CCC2 (stereo not drawn) [Example 54, 5-(2,3-Dihydro-1H-inden-4-yl)-3-(6-(2,4-dimethylpiperazin-1-yl)pyridin-3-yl)-6-methoxy-1H-pyrazolo[4,3-b]pyridine] | < 6 | 40 to 100 |  | 
12 | COC(=O)N1CCC(n2cc(-c3n[nH]c4cc(OC)c(-c5cccc(C)c5C)nc34)cn2)CC1 [Example 70, Methyl 4-(4-(5-(2,3-dimethylphenyl)-6-methoxy-1H-pyrazolo[4,3-b]pyridin-3-yl)-1H-pyrazol-1-yl)piperidine-1-carboxylate] | < 6 | > 100 |  | 
